Common to all, as to format: cell-based
The subject of experiment [1] is MDA-231 breast tumour cell line. Nature of the experiment: MTT assay. To be noted: Homo sapiens, MDA-MB-231, 48 h, read-out: MTT50. On the procedure: (§1) All cell lines were assayed as asynchronously growing cells. Leukemic cell lines, OCI-AML-2, OCI-AML-3 (referred to hereafter as AML-2 and AML-3, respectively), NB-4, KK, B1, G2, and W1 were cultured in alpha-minimal essential medium (α-MEM) (Princess Margaret Hospital Media Services) supplemented with 10% fetal bovine serum (FBS) (Sigma, St. Louis, Mo.). Non-transformed, diploid fibroblast lines WI38 and IMR90, were cultured in α-MEM and MEM F-15, respectively supplemented with 10% FBS. Media for IMR90 cells was also supplemented with 1.5 g/L bicarbonate and 1 mM pyruvate. Breast tumour cell lines, MDA-231, SK-BR-3, MCF-7, ZR-751, and melanoma tumour cell lines, WM9, WM983, WM793, 1232, were grown in α-MEM supplemented with 10% fetal bovine serum. Prostate tumour cell lines, DU145 and PC-3, were grown in RPMI 1640 media supplemented with 10% FBS. All cell lines were cultured in the presence of penicillin/streptomycin. Mononucleated cells were isolated from normal bone marrow using Ficoll hypaque and then T-cell depleted. T-cell depletion was performed by incubating the mononucleated bone marrow cells in α-MEM at a concentration of 2×10^7 cells/mL with 10% absor FBS and 10% (v/v) sheep red blood cells for 4 to 16 h. Absor FBS was prepared beforehand by heating FBS at 56° C. for 1 h, incubating with sheep red blood cells at 0.5% (v/v) for 1 h and then filtering the FBS with a […]. The T-cell depleted, mononucleated cells were recovered using Ficoll hypaque and were maintained in α-MEM supplemented with 20% FBS and 10% 5637 ? nditioned media. 5637 conditioned media ? s previously harvested from confluent 5637 cells after a 3 day incubation. Normal bone marrow from bone marrow transplant donor was collected following informed consent according to institutional guidelines.
(§2) Approximately 20 mg of each compound was dissolved in 5 mL of ACS grade acetone (Sigma) using a 5 mL volumetric flask. Stock solutions of the compounds were stored in the dark at −20° C. Compounds were diluted prior to each experiment.
(§3) Adherent cells were seeded at 67×10^3 cells/mL in a 96 well plate (Falcon, Mississauga, Ontario) the day prior to exposure to compound. Suspension cells were seeded at 27×10^4 cells/mL in a 96 well plate the day of exposure to compound. Mononucleated, T-cell depleted normal bone marrow cells were seeded at 67×10^4 cells/mL in a 96 well plate the day of exposure to compound. Compounds and solvent control were added to cells and assayed in triplicate or sextuplet. Following 48 h of incubation at 37° C. with 5% CO2, 40 μL of a 5 mg/mL solution of 3-[4,5-dimethylthiazol-2-yl]-2,5-diphenyltetrazolium bromide (MTT) substrate (Sigma) in Dulbecco's phosphate-buffered saline (D-PBS) was added. After 4 h of incubation at 37° C. with 5% CO2, the resulting violet formazan precipitate was solubilized by the addition of 80 μL of a 0.01 M HCI, 10% sodium dodecyl sulfate (SDS; Sigma) solution overnight at 37° C. with 5% CO2. The plates were then analyzed using the BioRad Benchmark Microplate Reader (BioRad Laboratories, Hercules, Calif.) at 570 nm to determine the optical density of the samples. MTT data was analyzed using Prism 3.0 (GraphPad Software, Inc., San Diego, Calif.) by the Chou-Talalay method. MTT graphs shown are a representative experiment.
(§4) Adherent cells were seeded at 67×10^3 cells/mL in a 96 well plate (Falcon, Mississauga, Ontario) the day prior to exposure to compound. Suspension cells were seeded at 27×10^4 cells/mL in a 96 well plate the day of exposure to compound. Mononucleated, T-cell depleted normal bone marrow cells were seeded at 67×10^4 cells/mL in a 96 well plate the day of exposure to compound. Compounds and solvent control were added to cells and assayed in triplicate or sextuplet. […]

The subject of experiment [2] is DU145 prostate tumour cell line. In words: MTT assay. To be noted: Homo sapiens, DU-145, 48 h, read-out: MTT50. The protocol: as §1, §2, §3, §4
Experiment [3] concerns SK-BR-3 breast tumour cell line. Nature of the experiment: MTT assay. To be noted: Homo sapiens, 48 h, read-out: MTT50. On the procedure: as §1, §2, §3, §4
Experiment [4] relates to 1232 melanoma tumour cell line. In words: MTT assay. To be noted: 48 h, read-out: MTT50. On the procedure: as §1, §2, §3, §4
In experiment [5] the test system is WM793 melanoma tumour cell line. Nature of the experiment: MTT assay. To be noted: Homo sapiens, 48 h, read-out: MTT50. On the procedure:
as §1, §2, §3, §4

Experiment [6] concerns ZR-751 breast tumour cell line. In words: MTT assay. The note with it: Homo sapiens, ZR-75-1, 48 h, read-out: MTT50. The protocol:
as §1, §2, §3, §4

Experiment [7] deals with WM983 melanoma tumour cell line. In words: MTT assay. To be noted: 48 h, read-out: MTT50. The protocol: as §1, §2, §3, §4
The test system of experiment [8] is WM9 melanoma tumour cell line. In words: MTT assay. The note with it: 48 h, read-out: MTT50. On the procedure:
as §1, §2, §3, §4

The subject of experiment [9] is mammalian cells. In words: Antiproliferative activity, summary grouping on the basis of MTT assays. To be noted: in words. On the procedure:
as §3
Initially, the efficacy of ten synthetic OSCs was explored for their antiproliferative activity against mammalian cells. […]

As for `CCC(=O)OCSSc1ccccc1` [Compound Q, 1-phenyl-1,2-dithiapropyl propionate], the IC50 in experiment [1] is 68.9 µM; in [2], 65.4 µM; in experiment [3], 59 µM; in experiment [4], 56 µM; in [5], 47 µM; in experiment [6] it was 52 µM. Besides, the IC50 in experiment [7] came to 47 µM; in experiment [8], 41 µM.
For `CSSCCS(C)(=O)=O` [F, 2,3,6-trithiaheptane 6,6,-dioxide], the “Antiproliferative activity (grouping in Summary of Results and Notes to the data sets)” value in [9] is “Anti-proliferative Activity”.
For `CS(C)(=O)=O` [Compound A, dimethyl sulfone], the “Antiproliferative activity (grouping in Summary of Results and Notes to the data sets)” value in [9] is “No anti-proliferative properties”.
